Legend:
[1] = system: animal models and myocyte cultures; conditions: compared to other hydrophobic statins; cited from earlier work
[2] = system: patients with prior myocardial infarction (CARE study); assay: CARE: association of SNPs with pravastatin treatment in RMI prevention (genotypic RR in placebo and statin strata; Table 10); format: in vivo, human
Excerpt: In order to identify genetic markers associated with acute coronary events (e.g. MI, stroke, unstable angina, congestive heart failure, etc.) or response to statin treatment for the prevention of coronary events, samples from the Cholesterol and Recurrent Events (CARE) study (a randomized multicentral double-blinded trial on secondary prevention of acute coronary events with pravastatin) (Sacks et al., 1991, Am. J. Cardiol. 68: 1436-1446) were genotyped. A well-documented myocardial infarction (MI) was one of the enrollment criteria for entry into the CARE study. Patients were enrolled in the CARE trial from 80 participating study centers. […] Patients were randomized to receive either 40 mg of pravastatin once daily or a matching placebo. The primary endpoint of the trial was death from coronary heart disease and the median duration of follow-up was 5.0 years (range, 4.0 to 6.2 years). […] Secondary endpoints of other related cardiovascular or metabolic disease events, and changes in clinical variables were also recorded in pravastatin-treated and placebo groups. All individuals included in the study had signed a written informed consent form and the study protocol was approved by the respective Institutional Review Boards (IRBs).
For genotyping SNPs in CARE patient samples, DNA was extracted from blood samples using conventional DNA extraction methods such as the QIA-amp kit from Qiagen. Genotypes were obtained on an ABI PRISM® 7900HT Sequence Detection PCR system (Applied Biosystems, Foster City, Calif.) by kinetic allele-specific PCR, similar to the method described by Germer et al. (Germer S., Holland M. J., Higuchi R. 2000, Genome Res. 10: 258-266).
For statistical analysis of association of SNPs with pravastatin treatment in RMI prevention (Table 10), effect sizes were estimated through genotypic RR, including 95% CIs. Homogeneity of Cochran-Mantel-Haenszel odds ratios was tested across pravastatin and placebo strata using the Wald test. […] (this adjustment supports independence of the SNP association from conventional risk factors). This table also provides the frequency data for the at risk allele in the columns labeled “Case Y PRIMER ALLELE Nucleotide Frequency” and “Control Y PRIMER ALLELE Nucleotide Frequency”. Allele frequencies for the cases and controls ≤0.49 indicate that the at-risk allele is the minor allele. Allele frequencies ≥0.50 indicate that the at-risk allele is the major allele. An example of a SNP associated with increased risk for an adverse cardiovascular event in the placebo group using a dominant genotypic test is hCV25644901. […] However, this same SNP was protective in the statin treated group with a RR of 0.58. An example of a SNP associated with an adverse cardiovascular event in the placebo group using the allelic association test is hCV16044337 with a RR of 1.87 for the homozygous AA genotype. This same genotype was protective in the statin treated group with a RR of 0.56.

CC[C@H](C)C(=O)O[C@H]1C[C@H](O)C=C2C=C[C@H](C)[C@H](CC[C@@H](O)C[C@@H](O)CC(=O)O)[C@H]21 [pravastatin]
myopathic potential [1]: low myopathic potential
RR (relative risk for RMI) ([2]; ABCA1 hCV2741051, Het(TC) stratum, Statin vs Placebo): 0.92
RR (relative risk for RMI) ([2]; ABCA1 hCV2741051, Maj Hom(CC) stratum, Statin vs Placebo): 0.59
RR (relative risk for RMI) ([2]; ABCA1 hCV2741051, Min Hom(TT) stratum, Statin vs Placebo): 1.25
RR (relative risk for RMI) ([2]; ABCA1 hCV2741051, Statin stratum, het(TC) vs. ref(CC)): 1.09
RR (relative risk for RMI) ([2]; ABCA1 hCV2741051, Statin stratum, hom(TT) vs. ref(CC)): 1.14
RR (relative risk for RMI) ([2]; ABCA1 hCV2741083, Het(TC) stratum, Statin vs Placebo, covars none): 1.51
RR (relative risk for RMI) ([2]; ABCA1 hCV2741083, Maj Hom(TT) stratum, Statin vs Placebo, covars none): 0.61
RR (relative risk for RMI) ([2]; ABCA1 hCV2741083, Min Hom(CC) stratum, Statin vs Placebo, covars none): 1.36
RR (relative risk for RMI) ([2]; ABCA1 hCV2741083, Statin stratum, het(TC)vs. ref(TT), covars none): 1.29
RR (relative risk for RMI) ([2]; ABCA1 hCV2741083, Statin stratum, hom (CC)vs. ref(TT), covars none): 1.00
RR (relative risk for RMI) ([2]; ATF6 hCV25631989, Het (TC) stratum, Statin vs Placebo): 2.43
RR (relative risk for RMI) ([2]; ATF6 hCV25631989, Maj Hom (CC) stratum, Statin vs Placebo): 0.66
RR (relative risk for RMI) ([2]; ATF6 hCV25631989, Statin stratum, het(TC) vs. ref (CC)): 1.53
RR (relative risk for RMI) ([2]; CYBA hCV2038, Het(AG) stratum, Statin vs Placebo, covars hx_smoke): 0.74
RR (relative risk for RMI) ([2]; CYBA hCV2038, Maj Hom(GG) stratum, Statin vs Placebo, covars hx_smoke): 0.55
RR (relative risk for RMI) ([2]; CYBA hCV2038, Min Hom(AA) stratum, Statin vs Placebo, covars hx_smoke): 1.38
RR (relative risk for RMI) ([2]; CYBA hCV2038, Statin stratum, het(AG) vs. ref(GG), covars hx_smoke): 1.40
RR (relative risk for RMI) ([2]; CYBA hCV2038, Statin stratum, hom(AA) vs. ref(GG), covars hx_smoke): 2.02
RR (relative risk for RMI) ([2]; EDG3 hCV25610470, Het(GA) stratum, Statin vs Placebo, covars HX_SMOKE): 0.22
RR (relative risk for RMI) ([2]; EDG3 hCV25610470, Maj Hom(GG) stratum, Statin vs Placebo, covars HX_SMOKE): 0.77
RR (relative risk for RMI) ([2]; EDG3 hCV25610470, Min Hom(AA) stratum, Statin vs Placebo, covars HX_SMOKE): 1.10
RR (relative risk for RMI) ([2]; EDG3 hCV25610470, Statin stratum, het(GA) vs. ref(GG), covars HX_SMOKE): 0.37
RR (relative risk for RMI) ([2]; F7 hCV783184, Het(TG) stratum, Statin vs Placebo): 1.10
RR (relative risk for RMI) ([2]; F7 hCV783184, Maj Hom(GG) stratum, Statin vs Placebo): 0.64
RR (relative risk for RMI) ([2]; F7 hCV783184, Min Hom(TT) stratum, Statin vs Placebo): 2.59
RR (relative risk for RMI) ([2]; F7 hCV783184, Statin stratum, het (TG) vs. ref(GG)): 1.28
RR (relative risk for RMI) ([2]; F7 hCV783184, Statin stratum, hom(TT) vs. ref(GG)): 1.65
RR (relative risk for RMI) ([2]; FCAR hCV7841642, Het(GA) stratum, Statin vs Placebo): 0.32
RR (relative risk for RMI) ([2]; FCAR hCV7841642, Maj Hom(GG) stratum, Statin vs Placebo): 0.82
RR (relative risk for RMI) ([2]; FCAR hCV7841642, Min Hom(AA) stratum, Statin vs Placebo): 1.33
RR (relative risk for RMI) ([2]; FCAR hCV7841642, Statin stratum, het(GA) vs. ref(GG)): 0.60
RR (relative risk for RMI) ([2]; FCAR hCV7841642, Statin stratum, hom (AA)vs. ref(GG)): 1.38
RR (relative risk for RMI) ([2]; FN1 hCV9506149, Het(TA) stratum, Statin vs Placebo): 0.90
RR (relative risk for RMI) ([2]; FN1 hCV9506149, Maj Hom(AA) stratum, Statin vs Placebo): 0.58
RR (relative risk for RMI) ([2]; FN1 hCV9506149, Min Hom(TT) stratum, Statin vs Placebo): 1.10
RR (relative risk for RMI) ([2]; FN1 hCV9506149, Statin stratum, het(TA) vs. ref(AA)): 1.15
RR (relative risk for RMI) ([2]; FN1 hCV9506149, Statin stratum, hom(TT) vs. ref(AA)): 1.72
RR (relative risk for RMI) ([2]; HLA-DPB1 hCV8851085, Het(GA) stratum, Statin vs Placebo, covars hx_smoke): 0.87
RR (relative risk for RMI) ([2]; HLA-DPB1 hCV8851085, Maj Hom(GG) stratum, Statin vs Placebo, covars hx_smoke): 0.58
RR (relative risk for RMI) ([2]; HLA-DPB1 hCV8851085, Min Hom(AA) stratum, Statin vs Placebo, covars hx_smoke): 2.19
RR (relative risk for RMI) ([2]; HLA-DPB1 hCV8851085, Statin stratum, het (GA)vs. ref(GG), covars hx_smoke): 1.40
RR (relative risk for RMI) ([2]; HLA-DPB1 hCV8851085, Statin stratum, hom(AA) vs. ref(GG), covars hx_smoke): 1.97
RR (relative risk for RMI) ([2]; HSPG2 hCV1603656, Het(TC) stratum, Statin vs Placebo, covars hx_smoke): 0.42
RR (relative risk for RMI) ([2]; HSPG2 hCV1603656, Maj Hom (CC) stratum, Statin vs Placebo, covars hx_smoke): 0.80
RR (relative risk for RMI) ([2]; HSPG2 hCV1603656, Statin stratum, het (TC)vs. ref(CC), covars hx_smoke): 0.65
RR (relative risk for RMI) ([2]; HSPG2 hCV1603692, Het(TC) stratum, Statin vs Placebo, covars none): 0.37
RR (relative risk for RMI) ([2]; HSPG2 hCV1603692, Maj Hom (CC) stratum, Statin vs Placebo, covars none): 0.79
RR (relative risk for RMI) ([2]; HSPG2 hCV1603692, Statin stratum, het (TC)vs. ref(CC), covars none): 0.65
RR (relative risk for RMI) ([2]; HSPG2 hCV1603697, Het(TC) stratum, Statin vs Placebo, covars none): 0.37
RR (relative risk for RMI) ([2]; HSPG2 hCV1603697, Maj Hom (CC) stratum, Statin vs Placebo, covars none): 0.80

Source: patent US9932637B2, “Genetic polymorphisms associated with cardiovascular disorders and drug response, methods of detection and uses thereof” (CELERA CORPORATION, priority 2003, dated 2018)
